Measured values published in patent US9346761B2, “Arginine methyltransferase inhibitors and uses thereof” (Epizyme, Inc., priority 2013, dated 2016).
Read-outs that look alike come from different tables or passages of the source.

Experiments:
[1] = tested on: mono-methyl arginine in RKO cells; test: RKO methylation assay, In Cell Western for mono-methyl arginine and DNA content; format: cell-based; conditions: Homo sapiens
Full-length human PRMT8 = molecular target: T1, Full-length human PRMT8 (Homo sapiens, UniProt Q9NR22); test: PRMT8 biochemical assay (3H-SAM Flashplate, peptide substrate)
T1 construct: Full-length human PRMT8 (NM_019854.4) isoform 1 transcript clone; made in house
Method in brief: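 E. coli-expressed PRMT8, GST-cleaved, was preincubated with compound for 30 min at room temperature in 20 mM Bicine pH 7.6, 1 mM TCEP, 0.005% BSG, 0.002% Tween 20. ³H-SAM and biotinylated histone H4 31-45 peptide then started methylation.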

[2] = In Cell Western, RKO cells, 72 hours, percent activation of mono-methyl arginine signal, read-out: EC30

T1 sequence (Q9NR22 whole entry, canonical isoform): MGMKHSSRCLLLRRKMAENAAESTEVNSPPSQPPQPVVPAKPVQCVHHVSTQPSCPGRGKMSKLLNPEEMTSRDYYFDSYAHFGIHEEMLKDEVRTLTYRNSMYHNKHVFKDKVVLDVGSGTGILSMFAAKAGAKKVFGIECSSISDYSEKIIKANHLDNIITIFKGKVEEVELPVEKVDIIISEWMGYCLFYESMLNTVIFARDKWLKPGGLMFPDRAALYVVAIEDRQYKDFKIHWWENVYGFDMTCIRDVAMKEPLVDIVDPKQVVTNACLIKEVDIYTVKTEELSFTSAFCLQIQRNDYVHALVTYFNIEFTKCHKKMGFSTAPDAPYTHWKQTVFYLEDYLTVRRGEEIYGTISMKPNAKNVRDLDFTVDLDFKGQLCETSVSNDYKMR

| SMILES | EC30 [1, 2] [nM] | IC50 (Full-length human PRMT8) [nM] | EC30 ([1]; RKO, 72 h) [nM] |
| --- | --- | --- | --- |
| Cc1cc(-c2n[nH]cc2CN(C)CCN)cc(C)c1OC(C)C [Compound 199, N^1-((3-(4-isopropoxy-3,5-dimethylphenyl)-1H-pyrazol-4-yl)methyl)-N^1-methylethane-1,2-diamine] | < 3000 | 101 to 1000 | – |
| CN(CCN)Cc1c[nH]nc1-c1ccc(Oc2ccccc2)c(C#N)c1 [Compound 202] | < 3000 | 101 to 1000 | – |
| CN(CCN)Cc1n[nH]cc1-c1ccc(Oc2ccccc2)cc1 [Compound 203] | < 3000 | 101 to 1000 | – |
| CNCCN(C)Cc1n[nH]cc1-c1ccc(Oc2ccccc2)cc1 [Compound 204] | < 3000 | < 100 | – |
| CN(CCN)Cc1c[nH]nc1-c1ccc(Oc2cccc(F)c2)cc1 [Compound 205] | < 3000 | 101 to 1000 | – |
| CNCCN(C)Cc1cn(C)nc1-c1ccc(OC(C)C)c(Cl)c1 [Compound 206] | – | 101 to 1000 | < 3000 |
| CNCCN(C)Cc1cn(C)nc1-c1ccc(Oc2ccccc2)cc1 [Compound 207] | < 3000 | 101 to 1000 | – |
| CNCCN(C)Cc1cnn(C)c1-c1ccc(Oc2ccccc2)cc1 [Compound 208] | < 3000 | 101 to 1000 | – |
| CNCCN(C)Cc1c[nH]nc1-c1ccc(OCCCOC)cc1 [Compound 209] | < 3000 | 101 to 1000 | – |
| CNCCN(C)Cc1n[nH]cc1-c1ccc(OC(C)C)c(F)c1 [Compound 210] | < 3000 | 101 to 1000 | – |
| CC(C)Oc1ccc(-c2c[nH]nc2CN(C)CCN)cc1Cl [Compound 211] | < 3000 | 101 to 1000 | – |
| CNCCN(C)Cc1n[nH]cc1-c1ccc(OC(C)C)c(Cl)c1 [Compound 212] | < 3000 | < 100 | – |
| CNCCN(C)Cc1c[nH]nc1-c1ccc(Oc2ccccc2)c(C#N)c1 [Compound 221] | < 3000 | 101 to 1000 | – |
| CN(CCN)Cc1c(-c2ccc(C#N)cc2)ncn1C [Compound 222] | > 12000 | 3010 to 10000 | – |
| CN(CCN)Cc1c[nH]nc1-c1ccc(Oc2ccccc2)c(F)c1 [Compound 224, N^1-((3-(3-fluoro-4-phenoxyphenyl)-1H-pyrazol-4-yl)methyl)-N^1-methylethane-1,2-diamine] | – | 101 to 1000 | < 3000 |
| CN(CCN)Cc1c[nH]nc1-c1ccc(Oc2ccc(F)cc2)cc1 [Compound 225, N^1-((3-(4-(4-fluorophenoxy)phenyl)-1H-pyrazol-4-yl)methyl)-N^1-methylethane-1,2-diamine] | < 3000 | < 100 | – |
| CN(CCN)Cc1c[nH]nc1-c1ccc(Oc2ccccc2)c(C(=O)N(C)C)c1 [Compound 226] | > 12000 | 3010 to 10000 | – |
| CNC(=O)c1cc(-c2n[nH]cc2CN(C)CCN)ccc1Oc1ccccc1 [Compound 227] | > 12000 | 101 to 1000 | – |
| CNCCN(C)Cc1c[nH]nc1-c1ccc(OCCCOC)c(Cl)c1 [Compound 228] | < 3000 | 101 to 1000 | – |
| CNCCN(C)Cc1cnn(CC(=O)OC)c1-c1ccc(OC(C)C)cc1 [Compound 249] | – | 1010 to 3000 | 3010 to 12000 |
| CNCCN(C)Cc1cn(CC(=O)O)nc1-c1ccc(OC(C)C)cc1 [Compound 250] | – | 1010 to 3000 | > 12000 |
| CNCCN(C)Cc1cn(C2CCCCC2)nc1-c1ccc(OC(C)C)cc1 [Compound 256] | > 12000 | 1010 to 3000 | – |
